Where two headings read alike, the source gives them in different places. Starred links: 1 amine or outer side, 2 acyl side, 3 side chain; linkers in the order of their positions; H or OH if unused. Non-standard residues stand in square brackets, D forms with d. Residues, ends and D or L forms follow the SMILES beside them. sY = N[C@@H](Cc1ccc(OS(=O)(=O)O)cc1)C(=O)O; Glutaryl = O=C(CCCC(=O)[*:2])[*:1]; pGlu = O=C1CC[C@@H](C(=O)O)N1; Suc = O=C(CCC(=O)[*:2])[*:1]
What was measured:
gallbladder = assay type: in vivo, guinea pig; conditions: for Gallbladder contracting activity (in words): compared with CCK-8
Protocol: This test was in accordance with the method of G. Bertaccini et al. [Br. J. Pharmacol., 34, 291-310 (1968)].
Male Hartley guinea pigs (weighing 400-600 g) was anesthetized with urethane and fixed at the supine position. After laparotomy, the top of the gallbladder was clamped with a Serre-fine which was connected to a FD pickup (model: SB-IT, NIHON KOHDEN KOGYO Co., Ltd.), and the contraction was recorded on a recorder (model: PJB-3012, made by the above company) through a preamplifier (model: RUP-25, made by the above company). A standard solution and the invented peptide solutions were injected into the jugular vein, and the relative potency was determined from the peak height of the gallbladder contraction.

[1] = system: pancreatic external secretion; assay: Acceleration of pancreatic external secretion (method of Dockray), i.v. in rats, compared with CCK-8; assay type: in vivo, rat; conditions: male Wistar rats, 30 minutes after administration
Protocol: This test was conducted in accordance with the method of Dockray [J. Physiol., 225, 679-692 (1972)]. Male Wistar rats (weighing about 280 g) were deprived for 24 hours and under anesthesia the gastric pylorus and the duodenal side end of the common hepatic duct were ligated. A canula for collection of pancreatic juice was inserted into the duct in the retrograde fashion. The bile was led into the duodenum. Varying concentrations of the control solution (CCK-8 solution) and solutions of the invented peptides in a volume of 50 μl were administered intravenously every one hour, thus determining the increment in the secretion rate of the pancreatic juice and protein during 30 minutes after administration, wherein the amount of the whole protein secreted was determined from the ultraviolet absorbance at 280 nm of the pancreatic juice secreted.

gastric acid secretion = assay: Gastric acid secretion accelerating activity in Shay rats; assay type: in vivo, rat; conditions: pylorus-ligated male Wistar rats, i.v., gastric juice 2 hours after administration; tetragastrin = 1.0
Protocol: This test was conducted with Shay rats [H, Shay et al., Gastroenterology, 5, 43 (1945)] prepared. Employing male Wistar rats (weighing 270-310 g) deprived for 24 hours, the gastric pylorus was ligated under ether-anesthesia. Immediately thereafter, the invented peptides and tetragastrin as a control were administered intravenously. Gastric juice was withdrawn 2 hours after administration, and its amount and the total amount of acid secreted were measured to determine the relative potency based on tetragastrin.

[2] = system: pancreatic external secretion; assay: Pancreatic external secretion accelerating activity (protein secretion), compared with tetragastrin; assay type: in vivo, rat; conditions: rats, i.v., increment in protein secretion rate during 30 minutes (UV 280 nm); tetragastrin = 1.0
Protocol: This test was conducted in accordance with the method of Dockray [J. Physiol., 225, 679-692 (1972)]. Male Wistar rats (weighing about 280 g) were deprived for 24 hours and under anesthesia the gastric pylorus and the duodenal side end of the common hepatic duct were ligated. A canula for collection of pancreatic juice was inserted into the duct in the retrograde fashion. The bile was led into the duodenum. […] The test was conducted in the same manner as stated already. The increment in the secretion rate of the protein in the pancreatic during 30 minutes after administration of the test solution was determined from the ultraviolet absorbance at 280 nm of the pancreatic juice. The found values were compared with that of tetragastrin.

[3] = male Hartley guinea pigs, injection into jugular vein, from peak height of gallbladder contraction, CCK-8 = 100

Row | Compound | Gallbladder contracting activity, relative potency (gallbladder; guinea pig, in vivo) | Gallbladder contracting activity (in words) (gallbladder; guinea pig) | Increased amount of the pancreatic juice secreted (in words) [1] | Gallbladder contracting activity, relative potency (gallbladder; [3]) | Gastric acid secretion accelerating activity, relative potency (gastric acid secretion) | Pancreatic external secretion accelerating activity, relative potency [2]
1 | CSCC[C@H](NC(=O)[C@H](Cc1ccc(OS(=O)(=O)O)cc1)NC(=O)[C@@H](N)CC(=O)O)C(=O)NCC(=O)N[C@@H](Cc1c[nH]c2ccccc12)C(=O)N[C@@H](CCSC)C(=O)N[C@@H](CC(=O)O)C(=O)N[C@@H](Cc1ccccc1)C(N)=O [CCK-8, Asp-Tyr(SO3 H)-Met-Gly-Trp-Met-Asp-Phe-NH2, reference compound] | 100 |  |  |  |  | 
2 | CSCC[C@H](NC(=O)[C@H](Cc1c[nH]c2ccccc12)NC(=O)[C@@H](Cc1c[nH]c2ccccc12)NC(=O)[C@H](CCSC)NC(=O)[C@H](Cc1ccc(OS(=O)(=O)O)cc1)NC(=O)CCCC(=O)O)C(=O)N[C@@H](CC(=O)O)C(=O)N[C@@H](Cc1ccccc1)C(N)=O [Compound V, Glt-Tyr(SO3 H)-Met-D-Trp-Trp-Met-Asp-Phe-NH2] (Glutaryl-[sY]M[dW]WMDF-NH2) | < 1.0 | little activity | comparable to that of CCK-8 |  |  | 
3 | Suc-Phe(NHSO3 H)-Met-Gly-Trp-Met-Asp-Phe-NH2 [Compound VII] |  | little activity | no active effect | < 1.0 |  | 
4 | CSCC[C@H](NC(=O)[C@H](Cc1c[nH]c2ccccc12)NC(=O)CNC(=O)[C@H](Cc1ccc(OS(=O)(=O)O)cc1)NC(=O)[C@H](C)NC(=O)CCCC(=O)O)C(=O)N[C@@H](CC(=O)O)C(=O)N[C@@H](Cc1ccccc1)C(N)=O [Compound X, Glt-Ala-Tyr(SO3 H)-Gly-Trp-Met-Asp-Phe-NH2] (Glutaryl-A[sY]GWMDF-NH2) |  |  |  |  | 6.1 | 258.8
5 | CSCC[C@H](NC(=O)[C@@H](N)Cc1c[nH]c2ccccc12)C(=O)N[C@@H](CC(=O)O)C(=O)N[C@@H](Cc1ccccc1)C(N)=O [Tetragastrin, reference compound] |  |  |  |  | 1.0 | 1.0
6 | CSCC[C@H](NC(=O)[C@H](Cc1ccc(OS(=O)(=O)O)cc1)NC(=O)CCC(=O)O)C(=O)NCC(=O)N[C@@H](Cc1c[nH]c2ccccc12)C(=O)N[C@@H](CCSC)C(=O)N[C@@H](CC(=O)O)C(N)=O [Compound II, Suc-Tyr(SO3 H)-Met-Gly-Trp-Met-Asp-NH2] (Suc-[sY]MGWMD-NH2) | 0 | no activity | no active effect |  |  | 
7 | CSCC[C@H](NC(=O)[C@H](Cc1c[nH]c2ccccc12)NC(=O)CNC(=O)[C@H](CCSC)NC(=O)[C@H](Cc1ccc(OS(=O)(=O)O)cc1)NC(=O)CCC(=O)O)C(N)=O [Compound I, Suc-Tyr(SO3 H)-Met-Gly-Trp-Met-NH2] (Suc-[sY]MGWM-NH2) | 0 | no activity | no active effect |  |  | 
8 | CSCC[C@H](NC(=O)[C@H](Cc1ccc(OS(=O)(=O)O)cc1)NC(=O)[C@H](CC(=O)O)NC(=O)CN)C(=O)NCC(=O)N[C@@H](Cc1c[nH]c2ccccc12)C(=O)N[C@@H](CCSC)C(=O)N[C@@H](CC(=O)O)C(=O)N[C@@H](Cc1ccccc1)C(N)=O [Compound VIII, Gly-Asp-Tyr(SO3 H)-Met-Gly-Trp-Met-Asp-Phe-NH2] | 97 | comparable activities with CCK-8 | comparable to that of CCK-8 |  |  | 
9 | CSCC[C@H](NC(=O)[C@H](Cc1c[nH]c2ccccc12)NC(=O)[C@@H](Cc1c[nH]c2ccccc12)NC(=O)[C@H](CCSC)NC(=O)[C@H](Cc1ccc(OS(=O)(=O)O)cc1)NC(=O)CCC(=O)O)C(=O)N[C@@H](CC(=O)O)C(=O)N[C@@H](Cc1ccccc1)C(N)=O [Compound IV, Suc-Tyr(SO3 H)-Met-D-Trp-Trp-Met-Asp-Phe-NH2] (Suc-[sY]M[dW]WMDF-NH2) | 5.0 | mild | comparable to that of CCK-8 |  |  | 
10 | Suc-Tyr(SO3 H)-Met-D-Ala-Trp-Met-Asp-Phe-NH2 [Compound III] |  | mild |  | 8.7 |  | 
11 | CSCC[C@H](NC(=O)[C@H](Cc1ccc(OS(=O)(=O)O)cc1)NC(=O)[C@H](CC(=O)O)NC(=O)CCN)C(=O)NCC(=O)N[C@@H](Cc1c[nH]c2ccccc12)C(=O)N[C@@H](CCSC)C(=O)N[C@@H](CC(=O)O)C(=O)N[C@@H](Cc1ccccc1)C(N)=O [Compound IX, β-Ala-Asp-Tyr(SO3 H)-Met-Gly-Trp-Met-Asp-Phe-NH2] | 113 | comparable activities with CCK-8 | about half of that of CCK-8 |  |  | 
12 | CSCC[C@H](NC(=O)[C@H](Cc1c[nH]c2ccccc12)NC(=O)CNC(=O)[C@H](Cc1ccc(OS(=O)(=O)O)cc1)NC(=O)[C@H](C)NC(=O)[C@@H]1CCC(=O)N1)C(=O)N[C@@H](CC(=O)O)C(=O)N[C@@H](Cc1ccccc1)C(N)=O [Compound XI, pGlu-Ala-Tyr(SO3 H)-Gly-Trp-Met-Asp-Phe-NH2] ([pGlu]A[sY]GWMDF-NH2) |  |  |  |  | 2.0 | 50.0

Reference: patent US4530836A, “Peptide” (Amano Pharmaceutical Co., Ltd., priority 1983, dated 1985)
